Patent publication US12479820B2, “Pyridin-3-yl derivatives” (Idorsia Pharmaceuticals Ltd, priority 2019, dated 2025)

The compounds below were run against T1, human LPA1 receptor (Homo sapiens, UniProt Q92633) (assay: Beta-arrestin recruitment assay to determine IC50 values for human LPAR1). Conditions: Tango EDG2-bla U2OS cells, antagonist assay, LPA 18:1 500 nM final.
T1 construct: TEV protease site; Gal4-VP16 transcription factor; host or cells: Tango EDG2-bla U2OS cells
Assay type: cell-based
Source text: Beta-Arrestin Recruitment Assay to Determine IC50 Values for Human LPAR1
The Tango™ EDG2-bla U2OS cells are obtained from Invitrogen. These cells contain the human LPA1 receptor cDNA linked to a TEV protease site and a Gal4-VP16 transcription factor integrated into the Tango™ GPCR-bla U2OS parental cell line. This parental cell line stably expresses a beta-arrestin/TEV protease fusion protein and the beta-lactamase (bla) reporter gene under the control of a UAS response element. Upon LPA (agonist) binding, LPA1 receptor gets activated, leading to arrestin-protease recruitment and proteolytic release of the transcription factor: The transcription factor then regulates transcription of a beta-lactamase reporter construct, which is measured upon addition of the live-cell substrate.
10′000 Tango™ EDG2-bla U2OS cells are seeded in a 384-well black with clear bottom plate in 30 μl Freestyle 293 Expression Medium (Invitrogen) and incubated for 20 h at 37° C., 5% CO2. For antagonist assays, 5 μl of test compound (dilution series in DMSO/Freestyle 293 Expression medium/0.1% fatty acid free BSA (Sigma)) or buffer control are added per well and incubated for 30 min at 37° C., 5% CO2. 5 μl of LPA 18:1 (500 nM final) (solution in Freestyle 293 Expression medium/0.1% fatty acid free BSA (Sigma)) are added per well and the plate incubated for 16 h at 37° C., 5% CO2. Cells are then loaded with LiveBLAzer-FRET™ B/G Substrate (Invitrogen) for 2 h in the dark and the fluorescence emission at 460 nm and 530 nm is measured using the SynergyMx reader (BioTek). Following the background subtraction from both channels, the 460/530 nm emission ratio for each well is calculated, then plotted and fitted to a 4-parameter logistic function to obtain IC50 values. IC50 is the concentration of antagonist inhibiting 50% of the maximal response.

T1 sequence (Q92633 whole entry, the tested form may be a part): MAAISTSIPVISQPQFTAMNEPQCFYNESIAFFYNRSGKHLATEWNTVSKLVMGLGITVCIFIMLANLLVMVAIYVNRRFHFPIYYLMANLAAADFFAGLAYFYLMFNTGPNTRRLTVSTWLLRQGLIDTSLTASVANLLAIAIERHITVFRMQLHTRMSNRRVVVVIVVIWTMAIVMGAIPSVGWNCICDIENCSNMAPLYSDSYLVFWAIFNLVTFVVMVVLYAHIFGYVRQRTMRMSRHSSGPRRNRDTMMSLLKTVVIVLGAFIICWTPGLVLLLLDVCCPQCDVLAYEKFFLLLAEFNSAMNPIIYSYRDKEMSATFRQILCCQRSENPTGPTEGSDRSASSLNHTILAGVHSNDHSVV

IC50 [nM] | Compound
48 | COc1cc(F)ncc1NC(=O)C1(c2ccccc2C(C)C)CNC1 [Example 1, N-(6-fluoro-4-methoxypyridin-3-yl)-3-(2-isopropylphenyl)azetidine-3-carboxamide]
74 | COc1ccncc1NC(=O)C1(c2ccccc2C(C)C)CNC1 [Example 2, 3-(2-isopropylphenyl)-N-(4-methoxypyridin-3-yl)azetidine-3-carboxamide]
4 | COc1cc(Cl)ncc1NC(=O)C1(c2ccccc2C(C)C)CNC1 [Example 3, N-(6-chloro-4-methoxypyridin-3-yl)-3-(2-isopropylphenyl)azetidine-3-carboxamide]
6 | COc1cc(Br)ncc1NC(=O)C1(c2ccccc2C(C)C)CNC1 [Example 4, N-(6-bromo-4-methoxypyridin-3-yl)-3-(2-isopropylphenyl)azetidine-3-carboxamide]
3 | CCOc1cc(Cl)ncc1NC(=O)C1(c2ccccc2C(C)C)CNC1 [Example 5, N-(6-chloro-4-ethoxypyridin-3-yl)-3-(2-isopropylphenyl)azetidine-3-carboxamide]
3 | CC(C)Oc1cc(Cl)ncc1NC(=O)C1(c2ccccc2C(C)C)CNC1 [Example 6, N-(6-chloro-4-isopropoxypyridin-3-yl)-3-(2-isopropylphenyl)azetidine-3-carboxamide]
41 | CC(C)c1ccccc1C1(C(=O)Nc2cnc(Cl)cc2OC2CC2)CNC1 [Example 7, N-(6-chloro-4-cyclopropoxypyridin-3-yl)-3-(2-isopropylphenyl)azetidine-3-carboxamide]
252 | COCCOc1cc(Cl)ncc1NC(=O)C1(c2ccccc2C(C)C)CNC1 [Example 8, N-(6-chloro-4-(2-methoxyethoxy)pyridin-3-yl)-3-(2-isopropylphenyl)azetidine-3-carboxamide]
4 | COC[C@H](C)Oc1cc(Cl)ncc1NC(=O)C1(c2ccccc2C(C)C)CNC1 [Example 9, (S)-N-(6-chloro-4-((1-methoxypropan-2-yl)oxy)pyridin-3-yl)-3-(2-isopropylphenyl)azetidine-3-carboxamide]
12 | COc1cc(Cl)ncc1NC(=O)C1(c2ccccc2C(C)C)CCNCC1 [Example 10, N-(6-chloro-4-methoxypyridin-3-yl)-4-(2-isopropylphenyl)piperidine-4-carboxamide]
36 | COc1cc(C)ncc1NC(=O)C1(c2ccccc2C(C)C)CNC1 [Example 11, 3-(2-isopropylphenyl)-N-(4-methoxy-6-methylpyridin-3-yl)azetidine-3-carboxamide]
1200 | COc1cc(C(F)(F)F)ncc1NC(=O)C1(c2ccccc2C(C)C)CNC1 [Example 12, 3-(2-isopropylphenyl)-N-(4-methoxy-6-(trifluoromethyl)pyridin-3-yl)azetidine-3-carboxamide]
3 | COc1cc(Cl)ncc1NC(=O)C1(c2c(F)cccc2C(C)C)CNC1 [Example 13, N-(6-chloro-4-methoxypyridin-3-yl)-3-(2-fluoro-6-isopropylphenyl)azetidine-3-carboxamide]
12 | COc1cc(Cl)ncc1NC(=O)C1(c2cc(F)ccc2C(C)C)CNC1 [Example 14, N-(6-chloro-4-methoxypyridin-3-yl)-3-(5-fluoro-2-isopropylphenyl)azetidine-3-carboxamide]
196 | COc1cc(Cl)ncc1NC(=O)C1(c2ncccc2C(C)C)CNC1 [Example 15, N-(6-chloro-4-methoxypyridin-3-yl)-3-(3-isopropylpyridin-2-yl)azetidine-3-carboxamide]
419 | COc1cc(Cl)ncc1NC(=O)C1(c2nc(F)ccc2C(C)C)CNC1 [Example 16, N-(6-chloro-4-methoxypyridin-3-yl)-3-(6-fluoro-3-isopropylpyridin-2-yl)azetidine-3-carboxamide]

Compound | IC50 [nM]
4-(4-((6-chloro-4-methoxypyridin-3-yl)carbamoyl)-4-(2-isopropylphenyl)piperidin-1-yl)-2,2-dimethyl-4-oxobutanoic acid [Example 19-20] | 22
